In PubChem BioAssay (NCI):
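These data come from cells grown in 96-well plates and exposed to compound for 48 hours at five concentrations. Definition used: TGI = concentration required for complete inhibition of growth.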

Key:
Assay in all cases: NCI anticancer screen, dose series, 48 h
[1] = test system: NCI-H522 lung
[2] = test system: NCI-H226 lung
[3] = test system: NCI/ADR-RES ovarian
[4] = test system: HCT-15 colon
[5] = test system: HCT-116 colon
[6] = test system: DU-145 prostate
[7] = test system: CCRF-CEM leukemia
[8] = test system: SK-OV-3 ovarian
[9] = test system: EKVX NSCLC
[10] = test system: U251 CNS
[11] = test system: RXF 393 renal
[12] = test system: M14 melanoma
[13] = test system: ACHN renal
[14] = test system: HCC-2998 colon
[15] = test system: SF-268 CNS
[16] = test system: MDA-N
[17] = test system: PC-3 prostate
[18] = test system: T-47D breast
[19] = test system: TK-10 renal
[20] = test system: SNB-19 CNS
[21] = test system: UO-31 renal
[22] = test system: SN12C renal
[23] = test system: OVCAR-3 ovarian
[24] = test system: OVCAR-4 ovarian
[25] = test system: SNB-75 CNS
[26] = test system: A498 renal
[27] = test system: COLO 205 colon
[28] = test system: HL-60(TB) leukemia
[29] = test system: HOP-62 NSCLC
[30] = test system: MDA-MB-435
[31] = test system: HT29 colon
[32] = test system: NCI-H23 lung
[33] = test system: SK-MEL-2 melanoma
[34] = test system: 786-0 renal
[35] = test system: SF-295 CNS
[36] = test system: HS 578T breast
[37] = test system: IGROV1 ovarian
[38] = test system: MALME-3M melanoma
[39] = test system: KM12 colon
[40] = test system: CAKI-1 renal
[41] = test system: SF-539 CNS
[42] = test system: MDA-MB-231 breast
[43] = test system: SK-MEL-28 melanoma
[44] = test system: SW-620 colon
[45] = test system: OVCAR-8 ovarian
[46] = test system: OVCAR-5 ovarian
[47] = test system: BT-549 breast
[48] = test system: HOP-92 NSCLC
[49] = test system: SK-MEL-5 melanoma
[50] = test system: NCI-H460 lung
[51] = test system: K-562 leukemia
[52] = test system: LOX IMVI melanoma
[53] = test system: MOLT-4 leukemia
[54] = test system: RPMI-8226 leukemia
[55] = test system: MCF7 breast
[56] = test system: UACC-62 melanoma
[57] = test system: A549 NSCLC
[58] = test system: SR leukemia
[59] = test system: UACC-257 melanoma

## CC(O)C1(CNc2cc(Cl)nc(N)n2)CCCC1 (stereo unspecified)
[1]
  TGI: > 100 µM
[2]
  TGI: > 100 µM
[3]
  TGI: > 100 µM
[4]
  TGI: > 100 µM
[5]
  TGI: > 100 µM
[6]
  TGI: > 100 µM
[7]
  TGI: > 100 µM
[8]
  TGI: > 100 µM
[9]
  TGI: > 100 µM
[10]
  TGI: > 100 µM
[11]
  TGI: > 100 µM
[12]
  TGI: > 100 µM
[13]
  TGI: > 100 µM
[14]
  TGI: > 100 µM
[15]
  TGI: > 100 µM
[16]
  TGI: > 100 µM
[17]
  TGI: > 100 µM
[18]
  TGI: > 100 µM
[19]
  TGI: > 100 µM
[20]
  TGI: > 100 µM
[21]
  TGI: > 100 µM
[22]
  TGI: > 100 µM
[23]
  TGI: > 100 µM
[24]
  TGI: > 100 µM
[25]
  TGI: > 100 µM
[26]
  TGI: > 100 µM
[27]
  TGI: > 100 µM
[28]
  TGI: > 100 µM
[29]
  TGI: > 100 µM
[30]
  TGI: > 100 µM
[31]
  TGI: > 100 µM
[32]
  TGI: > 100 µM
[33]
  TGI: > 100 µM
[34]
  TGI: > 100 µM
[35]
  TGI: > 100 µM
[36]
  TGI: > 100 µM
[37]
  TGI: > 100 µM
[38]
  TGI: > 100 µM
[39]
  TGI: > 100 µM
[40]
  TGI: > 100 µM
[41]
  TGI: > 100 µM
[42]
  TGI: > 100 µM
[43]
  TGI: > 100 µM
[44]
  TGI: > 100 µM
[45]
  TGI: > 100 µM
[46]
  TGI: > 100 µM
[47]
  TGI: > 100 µM
[48]
  TGI: > 100 µM
[49]
  TGI: > 100 µM
[50]
  TGI: > 100 µM
[51]
  TGI: > 100 µM
[52]
  TGI: > 100 µM
[53]
  TGI: > 100 µM
[54]
  TGI: > 100 µM
[55]
  TGI: > 100 µM
[56]
  TGI: > 100 µM
[57]
  TGI: > 100 µM
[58]
  TGI: > 100 µM
[59]
  TGI: > 100 µM

## CC(C)(C)c1cc(C(C)(C)C)c2c(c1O)OC(=O)CS2
[1]
  TGI: 14.3 µM
[2]
  TGI: 26.3 µM
[3]
  TGI: 20.6 µM
[4]
  TGI: 14.9 µM
[5]
  TGI: 13.4 µM
[6]
  TGI: 51.6 µM
[7]
  TGI: > 25.3 µM
[8]
  TGI: > 95.1 µM
[9]
  TGI: 25.6 µM
[10]
  TGI: 17.9 µM
[11]
  TGI: 13.7 µM
[12]
  TGI: 41.2 µM
[13]
  TGI: > 41 µM
[14]
  TGI: 14 µM
[15]
  TGI: 23.2 µM
[16]
  TGI: 14.8 µM
[17]
  TGI: > 64.7 µM
[18]
  TGI: 22.9 µM
[19]
  TGI: 21.7 µM
[20]
  TGI: 21.5 µM
[21]
  TGI: 20.5 µM
[22]
  TGI: 21.8 µM
[23]
  TGI: 18.1 µM
[24]
  TGI: > 74.6 µM
[25]
  TGI: 6.84 µM
[26]
  TGI: 66.9 µM
[27]
  TGI: 9.89 µM
[28]
  TGI: 10.7 µM
[29]
  TGI: 32.6 µM
[30]
  TGI: 20.1 µM
[31]
  TGI: 21.5 µM
[32]
  TGI: 18.1 µM
[33]
  TGI: 28.1 µM
[34]
  TGI: 28.5 µM
[35]
  TGI: 18.8 µM
[36]
  TGI: 20 µM
[37]
  TGI: > 60.2 µM
[38]
  TGI: > 93.7 µM
[39]
  TGI: 17.8 µM
[40]
  TGI: > 62.7 µM
[41]
  TGI: 12.5 µM
[42]
  TGI: 52.4 µM
[43]
  TGI: > 54.5 µM
[44]
  TGI: 37.7 µM
[45]
  TGI: > 78 µM
[46]
  TGI: 41 µM
[47]
  TGI: 23.9 µM
[48]
  TGI: > 47.7 µM
[49]
  TGI: 9.77 µM
[50]
  TGI: 9.13 µM
[51]
  TGI: 40.6 µM
[52]
  TGI: 24 µM
[53]
  TGI: > 45.8 µM
[54]
  TGI: > 100 µM
[55]
  TGI: > 31.2 µM
[56]
  TGI: 5.11 µM
[57]
  TGI: > 68.2 µM
[58]
  TGI: > 48.7 µM
[59]
  TGI: > 66.7 µM

## O=P(Nc1ccccc1)(Oc1ccccc1)N1CCN(c2ccccc2)CC1 (stereo unspecified)
[1]
  TGI: 19.7 µM
[2]
  TGI: 43.9 µM
[3]
  TGI: 39 µM
[4]
  TGI: 35 µM
[5]
  TGI: 32.8 µM
[6]
  TGI: 49.4 µM
[7]
  TGI: > 100 µM
[8]
  TGI: 33.3 µM
[9]
  TGI: 51.1 µM
[10]
  TGI: 30.8 µM
[11]
  TGI: 33.9 µM
[12]
  TGI: 28.6 µM
[13]
  TGI: 53.9 µM
[14]
  TGI: 29.9 µM
[15]
  TGI: 84.1 µM
[16]
  TGI: 31.6 µM
[17]
  TGI: 51.7 µM
[18]
  TGI: 58.5 µM
[19]
  TGI: 52.2 µM
[20]
  TGI: 32.1 µM
[21]
  TGI: 31 µM
[22]
  TGI: 36 µM
[23]
  TGI: 39.7 µM
[24]
  TGI: 62.5 µM
[25]
  TGI: 30.4 µM
[26]
  TGI: 35.6 µM
[27]
  TGI: 34.9 µM
[28]
  TGI: > 100 µM
[29]
  TGI: 32.3 µM
[30]
  TGI: 51.5 µM
[31]
  TGI: 29.3 µM
[32]
  TGI: 36.9 µM
[33]
  TGI: 35.7 µM
[34]
  TGI: 53.6 µM
[35]
  TGI: 33.6 µM
[36]
  TGI: 40.5 µM
[37]
  TGI: 40.4 µM
[38]
  TGI: 33.4 µM
[39]
  TGI: 33.5 µM
[40]
  TGI: 58.3 µM
[41]
  TGI: 33.9 µM
[42]
  TGI: 28.9 µM
[43]
  TGI: 35.2 µM
[44]
  TGI: 63.6 µM
[45]
  TGI: 49.8 µM
[46]
  TGI: 33.5 µM
[47]
  TGI: 29.5 µM
[48]
  TGI: 33.9 µM
[49]
  TGI: 33.5 µM
[50]
  TGI: 33.3 µM
[51]
  TGI: > 100 µM
[52]
  TGI: 33.5 µM
[53]
  TGI: 52.6 µM
[54]
  TGI: > 100 µM
[55]
  TGI: 32.1 µM
[56]
  TGI: 25.8 µM
[57]
  TGI: 38.5 µM
[58]
  TGI: > 100 µM
[59]
  TGI: 36.7 µM

## Cc1cc2c(C(C)C)c(O)c(O)c(C=NCC3CCCN4CCCCC34)c2cc1-c1cc2c(C=NCC3CCCN4CCCCC34)c(O)c(O)c(C(C)C)c2cc1C (stereo unspecified)
[1]
  TGI: 11.3 µM
[2]
  TGI: 43.2 µM
[3]
  TGI: 20.6 µM
[4]
  TGI: 41.3 µM
[5]
  TGI: > 100 µM
[6]
  TGI: > 64.3 µM
[7]
  TGI: 7.75 µM
[8]
  TGI: 18.1 µM
[9]
  TGI: 31.8 µM
[10]
  TGI: 21.5 µM
[11]
  TGI: 22.6 µM
[12]
  TGI: 33.9 µM
[13]
  TGI: 17.9 µM
[14]
  TGI: 46.3 µM
[15]
  TGI: 19.1 µM
[16]
  TGI: 20.9 µM
[17]
  TGI: 26.3 µM
[18]
  TGI: > 31 µM
[19]
  TGI: 32.5 µM
[20]
  TGI: 69.9 µM
[21]
  TGI: > 45.5 µM
[22]
  TGI: 17.1 µM
[23]
  TGI: 29 µM
[24]
  TGI: 43.3 µM
[25]
  TGI: 31.3 µM
[26]
  TGI: > 61.7 µM
[27]
  TGI: 12.3 µM
[28]
  TGI: 9.62 µM
[29]
  TGI: > 38.7 µM
[30]
  TGI: 25.8 µM
[31]
  TGI: 13.3 µM
[32]
  TGI: 27.1 µM
[33]
  TGI: 31.5 µM
[34]
  TGI: > 67.9 µM
[35]
  TGI: 25.9 µM
[36]
  TGI: 54.5 µM
[37]
  TGI: 21.6 µM
[38]
  TGI: 30.2 µM
[39]
  TGI: 17.7 µM
[40]
  TGI: 14.6 µM
[41]
  TGI: 85.9 µM
[42]
  TGI: 14.7 µM
[43]
  TGI: 39.5 µM
[44]
  TGI: > 56.1 µM
[45]
  TGI: 19 µM
[46]
  TGI: 38.8 µM
[47]
  TGI: 36.4 µM
[48]
  TGI: > 100 µM
[49]
  TGI: 15.5 µM
[50]
  TGI: 38.7 µM
[51]
  TGI: 38.2 µM
[52]
  TGI: > 49.1 µM
[53]
  TGI: 20 µM
[54]
  TGI: 58.5 µM
[55]
  TGI: 37 µM
[56]
  TGI: 39.3 µM
[57]
  TGI: > 75.1 µM
[58]
  TGI: > 100 µM
[59]
  TGI: 51.9 µM
